Consider eleven compounds from patent EP4740948A1 (Dong Wha Pharm. Co., Ltd., priority 2023, dated 2025).

Common to all, as to type: cell-based
One assay concerns Lovo cells. Description: Cancer cell proliferation inhibition (Cell Counting Kit-8), colorectal cancer cell line. Conditions: 1000 nM, cultured seven to 11 days. How it is done:
(§1) In addition, as one example of solid cancer in which an overexpression of EZH2 and a consequent disease association therebetween is reported, a proliferation inhibitory activity of the 1,3-benzodioxole derivative compounds represented by chemical formula I of the present invention was evaluated in Lovo cells as a colorectal cancer cell line, SW-13 cells as an adrenal cancer cell line, MIA-PaCa-2 cells as a pancreatic cancer cell line, and NCI-H1299 cells as a lung cancer cell line.
(§2) Each cell line (G401 cell, MKN-45 cell, Lovo cell, SW-13 cell, MIA-PaCa-2, NCI-H1299) of Table 2 below was cultured using RPMI1640, McCoy's 5a, L-15 or DMEM containing 10% fetal bovine serum, and the cells were seeded into wells of a 96-well culture dish at 100 to 1,000 cells each, and a test substance 1000 nM was cultured for seven to 11 days after drug treatment. After the culture, the cells were measured according to a manufacturer's instructions using Cell Counting Kit-8, and a cell proliferation inhibitory effect (% inhibition rate) of the test substance was obtained.
(§3) The cell proliferation inhibitory effect (% inhibition rate) of the test substance was calculated using a following equation. % inhibition rate = {1−(testgroup/controlgroup)} X 100 [formula]
For orientation: Tetrazolium dyes change colour on reduction, which living cells bring about.

The subject of the next assay is G401 cells. The assay can be described thus: Cancer cell proliferation inhibition (Cell Counting Kit-8), rhabdoid tumor cell line. Conditions: 1000 nM, cultured seven to 11 days; 1 µM.
Excerpt: (§4) Among solid cancer cells, in G401 cells in which expression of SMARCB1, which is a member of switch/sucrosenon-fermenting (SWI/SNF), is defective as a cell line of a rhabdoid tumor in which a therapeutic effect may be expected through dual inhibition of EZH1/2, and MKN-45 cells in which expression of ARID1A, which is a member of SWI/SNF, is defective as a gastric cancer cell line, a proliferation inhibitory ability of the 1,3-benzodioxole derivative compounds represented by chemical formula I of the present invention was evaluated.
as §2, §3

The subject of a further assay is MKN-45 cells. The assay can be described thus: Cancer cell proliferation inhibition (Cell Counting Kit-8), gastric cancer cell line. Conditions: 1000 nM, cultured seven to 11 days.
Excerpt: as §4, §2, §3

The subject of a further assay is SW-13 cells. Description: Cancer cell proliferation inhibition (Cell Counting Kit-8), adrenal cancer cell line. Particulars: 1000 nM, cultured seven to 11 days. How it is done: as §1, §2, §3
For another assay, the system named is MIA-PaCa-2 cells. The assay can be described thus: Cancer cell proliferation inhibition (Cell Counting Kit-8), pancreatic cancer cell line. Conditions: 1000 nM, cultured seven to 11 days. How it is done: as §1, §2, §3
For the next assay, the system named is NCI-H1299 cells. Description: Cancer cell proliferation inhibition (Cell Counting Kit-8), lung cancer cell line. Particulars: 1000 nM, cultured seven to 11 days. How it is done:
as §1, §2, §3

Structures are written as SMILES.

As for `CSc1cc(C)[nH]c(=O)c1CNC(=O)c1cc(-c2ccc(N3C[C@@H](C)O[C@@H](C)C3)nc2)c2c(c1C)OC(C)(C1CCN(CC(F)(F)F)CC1)O2` (single isomer, unassigned) [Compound 45], the “% inhibition rate LoVo” value in the assay on Lovo cells (1 µM) was “++ (++: more than 30% and less than 70%)”. Moreover, the “% inhibition rate G401” value in the assay on G401 cells is reported as “+ (+: ≤30%)”. Also, the “% inhibition rate MKN -45” value in the assay with MKN-45 cells (1 µM) is on record as “+ (+: ≤30%)”. In addition, the “% inhibition rate SW-13” value with SW-13 cells was “++ (++: more than 30% and less than 70%)”. For the same compound, the “% inhibition rate MIA-Paca2” value in the assay with MIA-PaCa-2 cells was “+ (+: ≤30%)”. In addition, the “% inhibition rate NCI-H129 9” value in the assay with NCI-H1299 cells was “++ (++: more than 30% and less than 70%)”.
Take `CSc1cc(C)[nH]c(=O)c1CNC(=O)c1cc(-c2ccc(N3C[C@@H](C)O[C@@H](C)C3)nc2)c2c(c1C)OC(C)(C1CCN(CC(F)F)CC1)O2` (single isomer, unassigned) [Compound 48]: the “% inhibition rate LoVo” value in the assay with Lovo cells is recorded as “+++ (+++: ≥70%)”. In addition, the “% inhibition rate G401” value in the assay with G401 cells is “+ (+: ≤30%)”. In the assay with MKN-45 cells (1 µM), the “% inhibition rate MKN -45” value is listed as “+ (+: ≤30%)”. Besides, the “% inhibition rate SW-13” value with SW-13 cells (1 µM) is on record as “+ (+: ≤30%)”. Moreover, the “% inhibition rate MIA-Paca2” value in the assay with MIA-PaCa-2 cells is on record as “+ (+: ≤30%)”. For the same compound, the “% inhibition rate NCI-H129 9” value in the assay on NCI-H1299 cells is “++ (++: more than 30% and less than 70%)”.
`CCN1CCC(C2(C)Oc3c(-c4ccc(N5C[C@@H](C)O[C@@H](C)C5)nc4)cc(C(=O)NCc4c(SC)cc(C)[nH]c4=O)c(C)c3O2)CC1` (single isomer, unassigned) [Compound 50]: in the assay on Lovo cells (1 µM), the “% inhibition rate LoVo” value is “+ (+: ≤30%)”. Also, the “% inhibition rate G401” value with G401 cells was “+ (+: ≤30%)”. In addition, the “% inhibition rate MKN -45” value in the assay with MKN-45 cells is “+ (+: ≤30%)”. Besides, the “% inhibition rate SW-13” value in the assay on SW-13 cells (1 µM) is “+ (+: ≤30%)”. The “% inhibition rate MIA-Paca2” value in the assay on MIA-PaCa-2 cells is recorded as “+ (+: ≤30%)”. For the same compound, in the assay on NCI-H1299 cells, the “% inhibition rate NCI-H129 9” value was “++ (++: more than 30% and less than 70%)”.
Take `CSc1cc(C)[nH]c(=O)c1CNC(=O)c1cc(-c2ccc(N3C[C@@H](C)O[C@@H](C)C3)nc2)c2c(c1C)OC(C)(C1CCN(C(C)C)CC1)O2` (single isomer, unassigned) [Compound 52]: the “% inhibition rate LoVo” value in the assay with Lovo cells (1 µM) was “+ (+: ≤30%)”. Besides, the “% inhibition rate G401” value in the assay with G401 cells is “+ (+: ≤30%)”. Besides, the “% inhibition rate MKN -45” value in the assay on MKN-45 cells is recorded as “+ (+: ≤30%)”. Besides, in the assay with SW-13 cells (1 µM), the “% inhibition rate SW-13” value is listed as “+ (+: ≤30%)”. The “% inhibition rate MIA-Paca2” value with MIA-PaCa-2 cells is “+ (+: ≤30%)”. Further, the “% inhibition rate NCI-H129 9” value with NCI-H1299 cells (1 µM) is given as “+ (+: ≤30%)”.
With `CSc1cc(C)[nH]c(=O)c1CNC(=O)c1cc(-c2ccc(N3C[C@@H](C)O[C@@H](C)C3)nc2)c2c(c1C)OC(C)(C1CCN(C3CCCCC3)CC1)O2` (single isomer, unassigned) [Compound 54], the “% inhibition rate LoVo” value in the assay on Lovo cells (1 µM) was “++ (++: more than 30% and less than 70%)”. The “% inhibition rate G401” value with G401 cells was “++ (++: more than 30% and less than 70%)”. In addition, the “% inhibition rate MKN -45” value in the assay on MKN-45 cells was “+ (+: ≤30%)”. Further, the “% inhibition rate SW-13” value with SW-13 cells is “++ (++: more than 30% and less than 70%)”. In addition, the “% inhibition rate MIA-Paca2” value with MIA-PaCa-2 cells was “+ (+: ≤30%)”. In the assay on NCI-H1299 cells (1 µM), the “% inhibition rate NCI-H129 9” value was “+ (+: ≤30%)”.
For `CSc1cc(C)[nH]c(=O)c1CNC(=O)c1cc(-c2ccc(N3C[C@@H](C)O[C@@H](C)C3)nc2)c2c(c1C)OC(C)(C1CCN(CCc3ccccc3)CC1)O2` (single isomer, unassigned) [Compound 56], in the assay with Lovo cells, the “% inhibition rate LoVo” value is reported as “+++ (+++: ≥70%)”. The “% inhibition rate G401” value in the assay on G401 cells was “++ (++: more than 30% and less than 70%)”. Further, the “% inhibition rate MKN -45” value in the assay on MKN-45 cells (1 µM) was “+ (+: ≤30%)”. Moreover, the “% inhibition rate SW-13” value in the assay with SW-13 cells (1 µM) was “+ (+: ≤30%)”. For the same compound, the “% inhibition rate MIA-Paca2” value with MIA-PaCa-2 cells is listed as “+ (+: ≤30%)”. The “% inhibition rate NCI-H129 9” value with NCI-H1299 cells (1 µM) is reported as “+ (+: ≤30%)”.
Consider `CSc1cc(C)[nH]c(=O)c1CNC(=O)c1cc(-c2ccc(N3C[C@@H](C)O[C@@H](C)C3)nc2)c2c(c1C)OC(C)(C1CCN(CCCC(F)(F)F)CC1)O2` (single isomer, unassigned) [Compound 58], for which, in the assay with Lovo cells (1 µM), the “% inhibition rate LoVo” value is “++ (++: more than 30% and less than 70%)”. Moreover, in the assay with G401 cells, the “% inhibition rate G401” value is given as “+ (+: ≤30%)”. The “% inhibition rate MKN -45” value in the assay on MKN-45 cells (1 µM) was “+ (+: ≤30%)”. The “% inhibition rate SW-13” value in the assay on SW-13 cells (1 µM) is recorded as “+ (+: ≤30%)”. In addition, the “% inhibition rate MIA-Paca2” value in the assay with MIA-PaCa-2 cells (1 µM) is recorded as “+ (+: ≤30%)”. Further, in the assay on NCI-H1299 cells (1 µM), the “% inhibition rate NCI-H129 9” value is “+ (+: ≤30%)”.
`CSc1cc(C)[nH]c(=O)c1CNC(=O)c1cc(-c2ccc(N3C[C@@H](C)O[C@@H](C)C3)nc2)c2c(c1C)OC(C)(C1CCN(C(=O)C(F)(F)F)CC1)O2` (single isomer, unassigned) [Compound 60]: the “% inhibition rate LoVo” value with Lovo cells was “+++ (+++: ≥70%)”. Moreover, the “% inhibition rate G401” value in the assay on G401 cells is on record as “+ (+: ≤30%)”. Besides, the “% inhibition rate MKN -45” value in the assay with MKN-45 cells (1 µM) is listed as “+ (+: ≤30%)”. The “% inhibition rate SW-13” value with SW-13 cells (1 µM) is given as “+ (+: ≤30%)”. The “% inhibition rate MIA-Paca2” value in the assay on MIA-PaCa-2 cells is “+ (+: ≤30%)”. Further, the “% inhibition rate NCI-H129 9” value in the assay with NCI-H1299 cells (1 µM) is “+ (+: ≤30%)”.
Take `CSc1cc(C)[nH]c(=O)c1CNC(=O)c1cc(-c2ccc(N3CCOCC3)nc2)c2c(c1C)OC(C)(C1CCN(CC(F)(F)F)CC1)O2` (single isomer, unassigned) [Compound 63, 2,4-dimethyl-N-((6-methyl-4-(methylthio)-2-oxo-1,2-dihydropyridin-3-yl)methyl)-7-(6-morpholinopyridin-3-yl)-2-(1-(2,2,2-trifluoro)piperidin-4-yl)benzo[d][1,3]dioxole-5-carboxamide]: the “% inhibition rate LoVo” value in the assay with Lovo cells (1 µM) was “++ (++: more than 30% and less than 70%)”. The “% inhibition rate G401” value in the assay on G401 cells is listed as “+ (+: ≤30%)”. The “% inhibition rate MKN -45” value with MKN-45 cells is “++ (++: more than 30% and less than 70%)”. The “% inhibition rate SW-13” value with SW-13 cells (1 µM) is “+ (+: ≤30%)”. In the assay with MIA-PaCa-2 cells, the “% inhibition rate MIA-Paca2” value is “+ (+: ≤30%)”. The “% inhibition rate NCI-H129 9” value in the assay with NCI-H1299 cells (1 µM) was “+ (+: ≤30%)”.
As for `CSc1cc(C)[nH]c(=O)c1CNC(=O)c1cc(-c2ccc(N3CCOCC3)nc2)c2c(c1C)OC(C)(C1CCN(CC(F)F)CC1)O2` (single isomer, unassigned) [Compound 65, 2-(1-(2,2-difluoroethyl)piperidin-4-yl)-2,4-dimethyl-N-((6-methyl-4-(methylthio)-2-oxo-1,2-dihydropyridin-3-yl)methyl)-7-(6-morpholinopyridin-3-yl)benzo[d][1,3]dioxole-5-carboxamide], in the assay on Lovo cells (1 µM), the “% inhibition rate LoVo” value was “++ (++: more than 30% and less than 70%)”. For the same compound, in the assay on G401 cells, the “% inhibition rate G401” value was “+ (+: ≤30%)”. Besides, the “% inhibition rate MKN -45” value with MKN-45 cells is “++ (++: more than 30% and less than 70%)”. The “% inhibition rate SW-13” value with SW-13 cells (1 µM) is listed as “+ (+: ≤30%)”. In addition, the “% inhibition rate MIA-Paca2” value with MIA-PaCa-2 cells is given as “+ (+: ≤30%)”. For the same compound, in the assay on NCI-H1299 cells, the “% inhibition rate NCI-H129 9” value was “+ (+: ≤30%)”.
With `CCN1CCC(C2(C)Oc3c(-c4ccc(N5CCOCC5)nc4)cc(C(=O)NCc4c(SC)cc(C)[nH]c4=O)c(C)c3O2)CC1` (single isomer, unassigned) [Compound 67, 2-(1-ethylpiperidin-4-yl)-2,4-dimethyl-N-((6-methyl-4-(methylthio)-2-oxo-1,2-dihydropyridin-3-yl)methyl)-7-(6-morpholinopyridin-3-yl)benzo[d][1,3]dioxole-5-carboxamide], the “% inhibition rate LoVo” value with Lovo cells (1 µM) was “+ (+: ≤30%)”. For the same compound, the “% inhibition rate G401” value in the assay with G401 cells is “+ (+: ≤30%)”. The “% inhibition rate MKN -45” value in the assay with MKN-45 cells (1 µM) is “+ (+: ≤30%)”. Moreover, the “% inhibition rate SW-13” value with SW-13 cells is given as “+ (+: ≤30%)”. In the assay on MIA-PaCa-2 cells, the “% inhibition rate MIA-Paca2” value was “+ (+: ≤30%)”. Moreover, the “% inhibition rate NCI-H129 9” value in the assay on NCI-H1299 cells was “+ (+: ≤30%)”.
